Tests used:
[1] = tested on: Echinochloa oryzoides (Ard.) Fritsch.; test: Preemergence weed control under flooded paddy conditions, ECHORC (Watergrass (Calif.)); format: in vivo; details: preemergence, flooded paddy, rated three to four weeks after treatment
[2] = tested on: Cyperus iria; test: Preemergence weed control under flooded paddy conditions, CYPIR (Rice Flatsedge); format: in vivo; details: preemergence, flooded paddy, rated three to four weeks after treatment
[3] = tested on: Cyperus serotinus, Rottb.; test: Preemergence weed control under flooded paddy conditions, CYPSE (Flatsedge); format: in vivo; details: preemergence, rated three to four weeks after treatment
[4] = tested on: Monochoria vaginalis, Presl.; test: Preemergence weed control under flooded paddy conditions, MOOVA (Monochoria); format: in vivo; details: preemergence, flooded paddy, rated three to four weeks after treatment
[5] = tested on: Sagittaria pygmaea, L.; test: Preemergence weed control under flooded paddy conditions, SAGPY (Arrowhead (Pygmaea)); format: in vivo; details: preemergence, flooded paddy, rated three to four weeks after treatment
[6] = tested on: Oryza sativa, (L.) Tebonnet; test: Rice tolerance to post-transplant applications under flooded paddy conditions (Example 187), ORYSAT (Rice, Tebonnet); details: rated three to four weeks after treatment

SMILES | ECHORC herbicidal rating ([1]; 0.0320 kg/ha) | ECHORC herbicidal rating ([1]; 0.0620 kg/ha) | ECHORC herbicidal rating ([1]; 0.1250 kg/ha) | ECHORC herbicidal rating ([1]; 0.2500 kg/ha) | CYPIR herbicidal rating ([2]; 0.0320 kg/ha) | CYPIR herbicidal rating ([2]; 0.0620 kg/ha) | CYPIR herbicidal rating ([2]; 0.1250 kg/ha) | CYPIR herbicidal rating ([2]; 0.2500 kg/ha) | MOOVA herbicidal rating ([4]; 0.0320 kg/ha) | MOOVA herbicidal rating ([4]; 0.0620 kg/ha) | MOOVA herbicidal rating ([4]; 0.1250 kg/ha) | MOOVA herbicidal rating ([4]; 0.2500 kg/ha) | SAGPY herbicidal rating ([5]; 0.0320 kg/ha) | SAGPY herbicidal rating ([5]; 0.0620 kg/ha) | SAGPY herbicidal rating ([5]; 0.1250 kg/ha) | SAGPY herbicidal rating ([5]; 0.2500 kg/ha) | ORYSAT herbicidal rating (rice tolerance) ([6]; 0.0320 kg/ha) | ORYSAT herbicidal rating (rice tolerance) ([6]; 0.0620 kg/ha) | ORYSAT herbicidal rating (rice tolerance) ([6]; 0.1250 kg/ha) | ORYSAT herbicidal rating (rice tolerance) ([6]; 0.2500 kg/ha) | also measured
CC(C)c1nsc2ccc(-n3c(=O)cc(C(F)(F)F)n(C)c3=O)cc12 [Example 499, 2,4(1H,3H)-Pyrimidinedione, 3-(3-isopropyl-1,2-benzisothiazol-5-yl)-1-methyl-6-(trifluoromethyl)-] | 7.5 | 9.0 | 9.0 | 9.0 | 8.0 | 9.0 | 9.0 | 9.0 | 8.0 | 9.0 | 9.0 | 9.0 | 8.0 | 9.0 | 9.0 | 9.0 | 6.5 | 8.0 | 7.5 | 9.0 | CYPSE herbicidal rating ([3]; 0.0320 kg/ha): 9.0; CYPSE herbicidal rating ([3]; 0.0620 kg/ha): 9.0; CYPSE herbicidal rating ([3]; 0.1250 kg/ha): 9.0; CYPSE herbicidal rating ([3]; 0.2500 kg/ha): 9.0
CC(C)N(C(C)C)S(=O)(=O)NC(=O)c1nsc2ccc(-n3c(=O)cc(C(F)(F)F)n(C)c3=O)cc12 [Example 500, 1,2-Benzisothiazole-3-carboxamide, 5-[3,6-dihydro-3-methyl-2,6-dioxo-4-(trifluoromethyl)-1(2H)-pyrimidinyl)-N-(diisopropylsulfamoyl)-] | 4.0 | 6.0 | 7.0 | 9.0 | 6.0 | 6.0 | 6.0 | 9.0 | 7.0 | 9.0 | 9.0 | 9.0 | 5.0 | 7.0 | 7.0 | 9.0 | 2.0 | 2.0 | 2.0 | 2.0 | CYPSE herbicidal rating ([3]; 0.0320 kg/ha): 0.0; CYPSE herbicidal rating ([3]; 0.0620 kg/ha): 0.0; CYPSE herbicidal rating ([3]; 0.1250 kg/ha): 0.0; CYPSE herbicidal rating ([3]; 0.2500 kg/ha): 0.0
Cn1c(C(F)(F)F)cc(=O)n(-c2ccc3snc(C(=O)NS(=O)(=O)/C=C/c4ccccc4)c3c2)c1=O [Example 501, 1,2-Benzisothiazole-3-carboxamide, 5-[3,6-dihydro-3-methyl-2,6-dioxo-4-(trifluoromethyl)-1(2H)-pyrimidinyl]-N-(styrylsulfonyl)-, (E)-] | 4.0 | 5.0 | 5.0 | 7.0 | 0.0 | 2.0 | 4.0 | 6.0 | 6.0 | 6.0 | 7.0 | 9.0 | 2.0 | 3.0 | 5.0 | 6.0 | 0.0 | 1.0 | 3.0 | 4.0 | CYPSE herbicidal rating ([3]; 0.0320 kg/ha): 0.0; CYPSE herbicidal rating ([3]; 0.0620 kg/ha): 0.0; CYPSE herbicidal rating ([3]; 0.1250 kg/ha): 3.0; CYPSE herbicidal rating ([3]; 0.2500 kg/ha): 5.0
C=CCOc1c(I)cc(C)cc1-c1nsc2ccc(-n3c(=O)cc(C(F)(F)F)n(C)c3=O)cc12 [Example 505, 2,4(1H,3H)-Pyrimidinedione, 3-{3-[6-(allyloxy)-5-iodo-m-tolyl]-1,2-benzisothiazol-5-yl}-1-methyl-6-(trifluoromethyl)-] | 6.0 | 6.0 | 7.0 | 9.0 | 0.0 |  | 3.0 | 4.0 | 7.0 | 7.0 | 7.0 | 8.0 | 0.0 | 2.0 | 2.0 | 4.0 | 4.0 | 4.0 | 4.0 | 6.0 | CYPSE herbicidal rating ([3]; 0.0620 kg/ha): 0.0; CYPSE herbicidal rating ([3]; 0.1250 kg/ha): 0.0
COc1cc(Cl)c(C)cc1-c1nsc2ccc(-n3c(=O)cc(C(F)(F)F)n(C)c3=O)cc12 [Example 506, 2,4(1H,3H)-Pyrimidinedione, 3-[3-(4-chloro-6-methoxy-m-tolyl)-1,2-benzisothiazol-5-yl]-1-methyl-6-(trifluoromethyl)-] | 7.5 | 9.0 | 9.0 | 9.0 | 6.5 | 8.0 | 9.0 | 9.0 | 8.0 | 9.0 | 9.0 | 9.0 | 2.5 | 3.0 | 3.0 | 4.5 | 1.5 | 1.5 | 1.5 | 2.0 | CYPSE herbicidal rating ([3]; 0.0320 kg/ha): 4.5; CYPSE herbicidal rating ([3]; 0.0620 kg/ha): 4.5; CYPSE herbicidal rating ([3]; 0.1250 kg/ha): 4.5; CYPSE herbicidal rating ([3]; 0.2500 kg/ha): 7.0
CN(C)S(=O)(=O)NC(=O)c1nsc2ccc(-n3c(=O)cc(C(F)(F)F)n(C)c3=O)cc12 [Example 507, 1,2-Benzisothiazole-3-carboxamide, 5-[3,6-dihydro-3-methyl-2,6-dioxo-4-(trifluoromethyl)-1(2H)-pyrimidinyl]-N-(dimethylsulfamoyl)-] | 2.0 | 2.0 | 4.0 | 7.0 | 5.0 | 6.0 | 9.0 | 9.0 | 9.0 | 9.0 | 9.0 | 9.0 | 7.0 | 9.0 | 9.0 | 9.0 | 3.0 | 5.0 | 7.0 | 5.0 | CYPSE herbicidal rating ([3]; 0.0320 kg/ha): 0.0
